Like-named read-outs stand apart in the source and are kept apart here.
What was measured:
ABTS antioxidant assay = conditions: for antioxidant activity relative to the standards daidzein and genistein: ABTS assay, summary of Table 1; for Trolox Equivalents (μmol/μmol): IC50 compared to IC50 of trolox; for IC50: concentration causing 50% reduction in ABTS absorbance, 2 min, room temperature
Experimental: This example illustrates how the biological data pertaining to antioxidant properties of the compounds was obtained.
The antioxidant activity of each test agent was assayed by a colorimetric assay described in the literature that utilizes 2,2′-azinobis-3-ethylbenzothiazoline-6-sulfonic acid (ABTS). ABTS has an intense blue-green color in its free radical form, but is colorless without the free radical. Free radical ABTS was generated by reacting 7 mM ABTS with 2.45 mM potassium persulfate in water for 24-48 hr at room temperature in the dark. Test agents were diluted in 50/50 phosphate buffered saline (PBS)/ethanol to a series of five concentrations, then added to a 96 well half-area plate using 50 μl per well with four wells for each agent concentration. Four control wells containing 50/50 PBS/ethanol without test agents were setup for comparison for each test agent. Trolox, a water-soluble form of vitamin E commonly employed as an antioxidant standard, was also tested in each set of experiments. The free radical ABTS solution was diluted with 50/50 PBS/ethanol to give an absorbance of 1.4 absorbance units at 734 nm, and was then added 50 μl per well to two of the four wells for each condition. The other two wells for each condition received 50 μl of 50/50 PBS/ethanol without ABTS to provide background correction absorbance readings. All dilution and plate loading operations were performed on a Packard Multiprobe II HTS automated liquid handling system. […] Readings for wells with ABTS were background corrected using the corresponding wells containing matching test agent levels without ABTS. The background corrected absorbance of each test agent concentration was then compared to the control wells without agent to determine the percent decrease in color intensity, corresponding to the percent of ABTS free radical reduction. A fit of percent absorbance decrease versus test agent concentration was then used to estimate the concentration causing a 50% reduction in absorbance, called the IC50. The test agent IC50 values were then compared to the IC50 of trolox to calculate the trolox equivalents (TE, moles of trolox needed to give the same level of antioxidant activity as one mole of test agent) for each agent. Smaller IC50 values or larger TE values indicate higher levels of antioxidant activity.

MCF7 cells = experiment: Growth inhibition assay (NCI method, sulforhodamine B), MCF7; type: cell-based, human; conditions: for GI50: read-out: GI50 (μM) MCF7
MCF12A cells = experiment: Growth inhibition assay (NCI method, sulforhodamine B), MCF12A; type: cell-based, human; conditions: for GI50: read-out: GI50 (μM) MCF12A
NCI/ADR-RES cells = experiment: Growth inhibition assay (NCI method, sulforhodamine B), NCI/ADR-RES; type: cell-based, human; conditions: for GI50: read-out: GI50 (μM) NCI/ADR-RES; for fall-off in activity in NCI/ADR-RES versus MCF7: multidrug resistant cell line over-expressing Pgp
[1] = test system: estrogen receptor (ERE-luciferase) in MCF7 ER-positive cells; experiment: ERE-Luciferase assay, estrogenic and antiestrogenic activity; type: cell-based, human
Experimental: Cell Culture Studies (MCF7 ER-Positive Cells)
Human cancer cell lines derived from breast (MCF7, ER-positive cells) were cultured in 75 ml culture flasks in DMEM (Invitrogen, Co.) supplemented with 10% FBS (Life Technologies, Inc., Gaithersburg, Md.), basic minimum MEM essential (50×, Invitrogen Co.) and MEM non-essential (100×, Invitrogen, Co.) amino acids, sodium pyruvate (100× Invitrogen Co.), antimicotic-antibiotic (10,000 U/mL penicillin G sodium; 10,000 μg/mL streptomycin sulphate; 25 μg/mL amphotericin B as Fungizone®), and human recombinant insulin (4 mg/mL. Invitrogen Co.). The culture flasks were maintained in a tissue culture incubator in a humidified atmosphere of 5% CO2 and 95% air at 37° C. For estrogen studies, cells were washed with PBS 3 times and grown in phenol red-free DMEM supplemented with 5% dextran-coated charcoal-treated FBS (5% CS-FBS) for 72 h before plating for each particular experiment.
Results were then assessed by using an ERE-luciferase assay. The cells were plated in 24 well plates at 5×10^5 cells/well in the same media and allowed to attach overnight. After 18 hours, cells were transfected for 5 h in serum supplemented-free DMEM with […] pGL2-ERE2X-TK-luciferase plasmid, using 6 μl of effectine (Qiagen)/μg of DNA. After 5 h the transfection medium was removed and replaced with phenol red-free DMEM supplemented with 5% CS-FBS containing vehicle, 17β-estradiol, GLY I, or 17β-estradiol plus GLY I, and incubated at 37° C. After 18 h the medium was removed, and 100 μl of lysis buffer was added per well and then incubated for 15 min at room temperature. Cell debris was pelleted by centrifugation at 15000×g for 5 min. cell extracts were normalized for protein concentration using reagent according to the protocol supplied by the manufacturer (Bio-Rad Laboratories, Inc., Hercules, Calif.). Luciferase activity for the cell extracts was determined using Luciferase substrate (Promega Corp.) in an Autoluminat Plus luminometer.

[2] = target: T1, hrER-α (alpha estrogen receptor) (Homo sapiens, UniProt P03372); experiment: ER-α competition binding assay (fluorescence anisotropy, ES2 displacement); conditions: ERα/ES2 complex, 2 h room temperature, FIG. 9; read-out: IC50 for 50% inhibition of a standard's binding with the alpha estrogen receptor (ER-α)
T1 sequence (P03372 1-595): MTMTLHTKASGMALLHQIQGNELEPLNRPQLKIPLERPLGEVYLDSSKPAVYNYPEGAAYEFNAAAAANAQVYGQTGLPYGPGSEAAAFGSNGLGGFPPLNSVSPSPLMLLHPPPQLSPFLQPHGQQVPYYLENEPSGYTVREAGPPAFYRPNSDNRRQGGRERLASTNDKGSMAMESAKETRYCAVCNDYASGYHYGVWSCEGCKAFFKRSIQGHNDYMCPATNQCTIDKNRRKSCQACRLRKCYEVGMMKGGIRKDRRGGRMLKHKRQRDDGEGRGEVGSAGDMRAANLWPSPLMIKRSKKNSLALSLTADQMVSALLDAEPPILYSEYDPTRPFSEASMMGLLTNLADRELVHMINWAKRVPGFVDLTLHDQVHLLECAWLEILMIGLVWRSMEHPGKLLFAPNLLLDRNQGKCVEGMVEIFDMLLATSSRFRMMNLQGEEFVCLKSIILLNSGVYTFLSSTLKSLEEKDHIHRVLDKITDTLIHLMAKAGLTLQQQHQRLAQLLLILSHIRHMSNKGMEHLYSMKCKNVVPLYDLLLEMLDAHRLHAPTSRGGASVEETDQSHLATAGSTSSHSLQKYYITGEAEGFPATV
Experimental: This example illustrates how the biological data pertaining to interaction of the compounds with the alpha-estrogen receptors was obtained.
A 200 μM working stock solution of GLY I was prepared from an original 10 mM DMSO stock solution. The working stock solution was serially diluted in triplicate in screening buffer to the desired concentrations. hrER-α and ES2 were added to a final concentration of 2 nM and 3 nM, respectively. Negative (ER+ES2, equivalent to 0% inhibition) and positive (free ES2, equivalent to 100% inhibition) controls in the absence of competitor were measured in duplicate. After 2 h at room temperature, the anisotropy values in each tube were measured using the Beacon 2000 system CO. The anisotropy values were converted to percent inhibition using the following formula: I%=(A0−A)/(A0−A100)×100, where I% is the percent inhibition, A0 is 0% inhibition, A100 is 100% inhibition, and A represents the observed value. Polarization values were converted to percent inhibition to make the data more intuitive to the reader and to normalize the day-to-day differences in the starting 0% inhibition polarization values. The percent inhibition versus competitor concentration curves were analyzed by nonlinear least-squares curve fitting and yielded an IC50 value (the concentration of competitor needed to displace half of the bound ligand). To compare binding affinities of the test compounds to those reported in the literature, IC50 values were converted to relative binding affinities (RBA) using E2 as a standard. The E2 RBA was set equal to 100 […].

[3] = Homo sapiens, NCI/ADR-RES, 48 h
[4] = human breast cancer cells, 48 hr, 10% serum
[5] = non-cancerous 'normal' human breast epithelial cells, 48 hr
[6] = multidrug resistant cell line, 48 hr
[7] = MCF7, human breast cancer cells, 48 hr, 10% serum
[8] = MCF-12A, non-cancerous 'normal' human breast epithelial cells, 48 hr
[9] = Homo sapiens, NCI/ADR-RES, multidrug resistant cell line, 48 hr

| IC50 (ABTS antioxidant assay) [µM] | SMILES | Trolox Equivalents (μmol/μmol) (ABTS antioxidant assay) | GI50 (MCF7 cells; [4]) [µM] | GI50 (MCF12A cells; [5]) [µM] | GI50 (NCI/ADR-RES cells; [6]) [µM] | GI50 (MCF7 cells; [7]) [µM] | GI50 (MCF12A cells; [8]) [µM] | GI50 (NCI/ADR-RES cells; [9]) [µM] | other results |
| --- | --- | --- | --- | --- | --- | --- | --- | --- | --- |
| 3.5 ± 0.3 | Oc1ccc2c(c1)OC[C@@]1(O)c3ccc(O)cc3O[C@@H]21 (racemic) [Glycinol (+/−), (+) Glycinol] | 2.8 ± 0.2 | > 1000 | > 1000 | > 1000 | – | – | – | antioxidant activity relative to the standards daidzein and genistein (ABTS antioxidant assay): about equiactive to the standards; estrogenic activity (ERE-Luciferase) ([1]; concentration not given): significantly stronger estrogenic material; growth inhibitory activity (MCF7 cells; human breast cell lines, 10% serum): lack of growth inhibitory activity |
| 4.6 ± 0.2 | CC(C)(C)[Si](C)(C)Oc1ccc2c(c1)OC1c3ccc(O)cc3OCC21O (racemic) [4 (+/−), (+) 9-(t-Butyldimethylsilyloxy)-glycinol] | 2.0 ± 0.1 | 4.1 | 4 | 2.9 | – | – | – | – |
| 3.3 ± 0.2 | O=c1c(-c2ccc(O)cc2)coc2cc(O)ccc12 [Daidzein, reference compound] | 3.0 ± 0.1 | – | – | – | 200 | 120 | 150 | – |
| – | CC1(C)C=Cc2c(ccc3c2OC[C@@]2(O)c4ccc(O)cc4O[C@@H]32)O1 [isolated GLY I, reference compound] | – | – | – | – | – | – | – | IC50 [2]: 1.1 µM |
| 5 ± 0.4 | CC(C)(C)[Si](C)(C)Oc1ccc2c(c1)OC1c3ccc(O)cc3OCC21O (single isomer, unassigned; (+)) [4 (+), (+) 9-(t-Butyldimethylsilyloxy)-glycinol] | 1.9 ± 0.1 | 14 | 15 | 13 | – | – | – | – |
| 5 ± 0.5 | CC(C)(C)[Si](C)(C)Oc1ccc2c(c1)OC1c3ccc(O)cc3OCC21O (single isomer, unassigned; (-)) [4 (−), (−) 9-(t-Butyldimethylsilyloxy)-glycinol] | 1.9 ± 0.1 | 7.1 | 11 | 8.7 | – | – | – | – |
| 5.3 ± 0.3 | CC1(C)C=Cc2c(ccc3c2OC[C@@]2(O)c4ccc(O)cc4O[C@@H]32)O1 [7 (−), Glyceollin I (Natural Glyceollin I)] | 1.8 ± 0.1 | – | – | – | 12 | 25 | 27 | IC50 [2]: 1.4 µM; anti-estrogenic activity (ERE-Luciferase) ([1]; at 10-25 μM): only anti-estrogenic activity |
| 3.3 ± 0.1 | O=c1c(-c2ccc(O)cc2)coc2cc(O)cc(O)c12 [Genistein, reference compound] | 3.0 ± 0.1 | – | – | – | 46 | 22 | 17 | – |
| 5.2 ± 0.3 | CC1(C)C=Cc2c(ccc3c2OC[C@]2(O)c4ccc(O)cc4O[C@H]32)O1 [7 (+), (+) Glyceollin I (Unnatural Glyceollin I)] | 1.8 ± 0.1 | – | – | – | 21 | 31 | 38 | IC50 [2]: 1.4 µM; estrogenic activity (ERE-Luciferase) ([1]; at 10-25 μM): modest estrogenic activity; anti-estrogenic effects (ERE-Luciferase) ([1]; concentration not given): only slight anti-estrogenic effects |
| – | CC(=O)O[C@H]1C(=O)[C@@]2(C)[C@H]([C@H](OC(=O)c3ccccc3)[C@]3(O)C[C@H](OC(=O)[C@H](O)[C@@H](NC(=O)c4ccccc4)c4ccccc4)C(C)=C1C3(C)C)[C@]1(OC(C)=O)CO[C@@H]1C[C@@H]2O [paclitaxel, reference compound] | – | – | – | – | – | – | – | potency in MCF7 versus MCF12A (differential in activity) (MCF12A cells; cancer versus normal breast cells): nearly equivalent; fall-off in activity in NCI/ADR-RES versus MCF7 (NCI/ADR-RES cells): ~1,000 fold |

| SMILES | IC50 (ABTS antioxidant assay) [µM] | Trolox Equivalents (μmol/μmol) (ABTS antioxidant assay) | GI50 (MCF7 cells; [4]) [µM] | GI50 (MCF12A cells; [5]) [µM] | GI50 (NCI/ADR-RES cells; [6]) [µM] | GI50 (MCF7 cells; [7]) [µM] | GI50 (MCF12A cells; [8]) [µM] | GI50 (NCI/ADR-RES cells; [9]) [µM] | other results |
| --- | --- | --- | --- | --- | --- | --- | --- | --- | --- |
| CC(C)(C)[Si](C)(C)Oc1ccc(C2(O)COc3cc(OCc4ccccc4)ccc3C2O)c(OCc2ccccc2)c1 (racemic) [2 (+/−), (+) 4′-(t-Butyldimethylsilyloxy)-2′,7-dibenzyloxy-isoflavan-3,4-diol] | > 100 | 0.008 ± 0.006 | – | – | – | – | – | – | antioxidant activity relative to the standards daidzein and genistein (ABTS antioxidant assay): weak activity; GI50 (MCF7 cells; Homo sapiens, MCF7, 48 h): 10 µM; GI50 (MCF12A cells; Homo sapiens, MCF-12A, 48 h): 20 µM; GI50 (NCI/ADR-RES cells; [3]): 120 µM; fall-off in activity in NCI/ADR-RES versus MCF7 (NCI/ADR-RES cells): ca. 100 fold |
| CC(C)(C)[Si](C)(C)Oc1ccc(C2(O)COc3cc(O)ccc3C2O)c(O)c1 (racemic) [3 (+/−), (+) 4′-(t-Butyldimethylsilyloxy)-2′,7-dihydroxy-isoflavan-3,4-diol] | 4.6 ± 0.3 | 2.0 ± 0.1 | – | – | – | – | – | – | GI50 (MCF7 cells; Homo sapiens, MCF7, 48 h): 31 µM; GI50 (MCF12A cells; Homo sapiens, MCF-12A, 48 h): 36 µM; GI50 (NCI/ADR-RES cells; [3]): 21 µM |

— patent US8563599B2, “Methods for synthesizing glycinols, glyceollins I and II, compositions of selected intermediates, and therapeutic uses thereof” (The United States of America, represented by the Secretary …, priority 2008, dated 2013)
